In patent US20110212053A1, “PHOSPHATIDYLINOSITOL 3 KINASE INHIBITORS” (priority 2008, published 2011):
Where “and” joins values, the source holds several entries; their conditions need not be identical. Equal entries are not always repeated.

How the values were obtained:
[1] = tested on: p-AKT(S473) in IGF-1-stimulated A549 cells; assay: In-cell western blot (cytoblot) of AKT phosphorylation, IGF-1-stimulated A549; format: cell-based; conditions: Homo sapiens, read-out: IC50 against the p-AKT(S473) phosphorylation site
Procedure: Compound Preparation: Cell-based assays: 1000× stocks of inhibitors were prepared in DMSO. A 10 mM master stock was prepared and all other stocks were generated by serial dilution of the master stock in DMSO. The final concentration of DMSO in cell-based assays was 0.1% (v/v).
In-cell western blot (cytoblot) mechanistic assay; Measurement of AKT phosphorylation: The in-cell western blot assay is a quantitative 96-well immunocytochemistry assay using fixed cells. Phosphorylated AKT is detected and quantified via either enhanced chemiluminescence (ECL) or near infra-red (LI-COR) methods. Log-phase cells (10,000 A549, RKO or 30,000 U-87 MG) were plated in collagen coated, 96 well plates (Nunc) in 200 μL of growth medium (10% FBS/DMEM) and allowed to attach overnight at 37° C. in 5% CO2 incubator. Black 96 well plates were used for ECL assays. White, clear bottomed 96 well plates were used for LI-COR assays. The following day the growth medium was removed. For experiments using U-87 MG cells and RKO cells, the growth medium was replaced with 200 μL of fresh growth medium containing inhibitors dissolved in DMSO. PI3K inhibitors were dosed using half-log dilutions to generate an eight-point dose-response curve from 0.0 μM-10 μM for EC50 determinations, and the final concentration of DMSO in the test wells was 0.1% (v/v). The inhibitor treated cells were then incubated for 1 hour at 37° C. […]
After the inhibitor incubation phase (with or without IGF-1 stimulation), the medium was aspirated, the cells washed once with Tris-Buffered Saline (TBS) and then fixed in the wells by addition of 200 μL of cold 3.7% (v/v) formaldehyde diluted in TBS to test wells and incubated for 15 minutes at 4° C. […] The wells were then was washed four times with ice-cold TBS-T. Phospho-AKT luminescent signal was detected after a 1 minute incubation of test wells with 100 μL of ECL reagent using a SpectraMax M5 luminometer. (ii) Near-infrared fluorescence detection (LI-COR): After removal of the methanol, wells were blocked with 200 μL of LI-COR blocking buffer for 1 hour at room temperature. […]

PI3Kα(H1047R) = molecular target: T1, PI3Kα(H1047R) (Homo sapiens, UniProt P42336, H1047R); assay: KinaseGLO luminescent PI3-kinase assay, mutant PI3Kα(H1047R); format: biochemical
T1 construct: purchased Invitrogen or Millipore
Procedure: (§1) Compound Preparation: KinaseGLO assay: 30× stocks of inhibitors were prepared in DMSO. A 10 mM master stock was prepared and all other stocks were generated by serial dilution of this master stock in DMSO. The final concentration of DMSO in the kinase reaction was 3.3% (v/v).
(§2) PI3-Kinase Assay: The KinaseGLO® Luminescent Kinase Assay (Promega) is a luciferin-luciferase based luminescent assay that utilizes a proprietary thermostable luciferase to quantify the ATP remaining in a solution after a kinase reaction. The luminescent signal generated using KinaseGLO® directly correlates with ATP concentration, and therefore inversely correlates with kinase activity.
(§3) PI3K enzyme sample was thawed and diluted to 100 ng/μL in enzyme dilution buffer (50 mM HEPES, pH7.5, 3.0 mM MgCl2, 1.0 mM EGTA) and stored on ice. PI3Kα enzyme was diluted to a final concentration of 1 ng/μL in reaction buffer (for PI3Kα; 50 mM HEPES, pH7.5, 100 mM NaCl, 2.0 mM DTT, 3.0 mM MgCl2, 1.0 mM EGTA, 10 μM ATP) and gently mixed. 25 μL of this kinase reaction was then aliquoted into test wells in a Microfluor2 white 96-well plate (Thermo Scientific). As a preincubation step, 1 μl of 30× compound dilutions was added to the appropriate test wells to generate a ten point dose-response ranging from 0.0 μM-10 μM inhibitor. […] Luminescent signal was detected using a SpectraMax M5 (Molecular Devices). Maximal luminescence (no PI3K activity/maximal PI3K inhibition) was determined from reaction buffer plus SC-PI substrate only controls. The minimal signal (maximal PI3K activity) was determined by the 0.0 μM compound (DMSO only) control. IC50 values were calculated via non-linear regression using GraphPad Prism data analysis software.
(§4) Compounds were assayed against the Class I PI3Kα, PI3Kβ, PI3Kγ, PI3Kδ, PI3Kα(H1047R) and PI3Kα(E545K) in the KinaseGLO assay as described in Example 2, and against the Class IV PI3K mTOR in the radiometric assay. IC50 values (μM) were determined using 8-10 point half-log dose dilutions and calculated via nonlinear regression analysis using Graphpad Prism data analysis software.

PI3Kγ = molecular target: T2, PI3Kγ (Homo sapiens, UniProt P48736); assay: KinaseGLO luminescent PI3-kinase assay, PI3Kγ; format: biochemical
T2 construct: purchased Invitrogen or Millipore
Procedure: as §1, §2, §3, §4

PI3Kδ = molecular target: T3, PI3Kδ (Homo sapiens, UniProt O00329); assay: KinaseGLO luminescent PI3-kinase assay, PI3Kδ; format: biochemical
T3 construct: purchased Invitrogen or Millipore
Procedure: as §1, §2, §3, §4

T2 sequence (P48736 whole entry): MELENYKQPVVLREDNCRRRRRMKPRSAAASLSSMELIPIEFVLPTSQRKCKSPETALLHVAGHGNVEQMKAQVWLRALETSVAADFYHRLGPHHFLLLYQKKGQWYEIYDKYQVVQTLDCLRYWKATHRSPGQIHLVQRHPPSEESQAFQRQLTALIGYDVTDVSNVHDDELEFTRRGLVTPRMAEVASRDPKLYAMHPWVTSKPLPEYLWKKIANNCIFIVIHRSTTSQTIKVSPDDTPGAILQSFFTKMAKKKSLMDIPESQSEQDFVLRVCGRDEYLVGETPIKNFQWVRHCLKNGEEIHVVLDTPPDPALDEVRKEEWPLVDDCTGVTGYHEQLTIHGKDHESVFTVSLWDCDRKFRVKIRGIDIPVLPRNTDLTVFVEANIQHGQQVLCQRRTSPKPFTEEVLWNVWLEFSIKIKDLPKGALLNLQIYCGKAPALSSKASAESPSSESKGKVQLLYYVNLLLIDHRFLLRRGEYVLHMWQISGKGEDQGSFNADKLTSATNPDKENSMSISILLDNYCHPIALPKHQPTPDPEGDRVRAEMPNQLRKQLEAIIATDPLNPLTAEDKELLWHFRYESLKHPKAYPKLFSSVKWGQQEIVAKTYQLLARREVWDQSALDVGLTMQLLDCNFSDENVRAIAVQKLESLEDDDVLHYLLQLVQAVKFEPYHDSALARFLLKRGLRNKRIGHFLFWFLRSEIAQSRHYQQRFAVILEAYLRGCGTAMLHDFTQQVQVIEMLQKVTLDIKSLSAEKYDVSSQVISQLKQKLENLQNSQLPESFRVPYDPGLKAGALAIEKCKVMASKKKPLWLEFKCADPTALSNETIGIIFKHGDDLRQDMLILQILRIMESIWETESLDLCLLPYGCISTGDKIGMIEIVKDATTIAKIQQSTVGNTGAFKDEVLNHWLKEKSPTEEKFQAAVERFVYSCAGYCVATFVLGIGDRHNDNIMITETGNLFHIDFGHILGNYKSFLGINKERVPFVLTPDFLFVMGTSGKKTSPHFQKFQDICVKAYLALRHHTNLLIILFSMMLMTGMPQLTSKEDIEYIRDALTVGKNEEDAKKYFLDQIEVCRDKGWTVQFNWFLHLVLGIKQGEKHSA
T1 sequence (P42336 whole entry H1047R): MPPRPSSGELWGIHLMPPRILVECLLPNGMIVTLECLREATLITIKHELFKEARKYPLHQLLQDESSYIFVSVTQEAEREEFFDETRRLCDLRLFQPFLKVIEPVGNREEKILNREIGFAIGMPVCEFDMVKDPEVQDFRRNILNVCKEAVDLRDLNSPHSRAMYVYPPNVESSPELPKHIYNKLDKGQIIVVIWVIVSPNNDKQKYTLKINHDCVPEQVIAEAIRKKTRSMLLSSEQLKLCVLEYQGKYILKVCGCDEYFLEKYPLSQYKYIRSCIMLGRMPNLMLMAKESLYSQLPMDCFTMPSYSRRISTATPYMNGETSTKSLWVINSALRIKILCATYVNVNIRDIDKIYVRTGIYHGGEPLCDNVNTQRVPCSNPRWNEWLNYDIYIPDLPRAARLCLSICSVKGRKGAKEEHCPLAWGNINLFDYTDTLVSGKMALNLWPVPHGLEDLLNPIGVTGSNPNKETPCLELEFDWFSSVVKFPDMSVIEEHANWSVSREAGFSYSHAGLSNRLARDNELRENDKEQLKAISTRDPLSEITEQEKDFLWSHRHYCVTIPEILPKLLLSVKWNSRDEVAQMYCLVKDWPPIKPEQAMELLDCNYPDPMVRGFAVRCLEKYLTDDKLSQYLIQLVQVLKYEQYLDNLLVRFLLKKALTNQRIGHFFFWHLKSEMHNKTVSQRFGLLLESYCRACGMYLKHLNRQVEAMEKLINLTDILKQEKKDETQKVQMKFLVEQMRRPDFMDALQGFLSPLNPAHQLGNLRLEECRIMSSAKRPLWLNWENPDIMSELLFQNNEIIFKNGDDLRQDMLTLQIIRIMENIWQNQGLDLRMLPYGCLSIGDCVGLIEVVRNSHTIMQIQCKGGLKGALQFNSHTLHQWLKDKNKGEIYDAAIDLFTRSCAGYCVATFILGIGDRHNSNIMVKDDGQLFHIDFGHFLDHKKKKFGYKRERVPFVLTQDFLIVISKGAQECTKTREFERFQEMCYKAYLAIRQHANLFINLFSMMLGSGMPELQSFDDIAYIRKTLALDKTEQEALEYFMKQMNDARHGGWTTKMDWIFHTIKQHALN
T1 sequence (P27986 whole entry partner): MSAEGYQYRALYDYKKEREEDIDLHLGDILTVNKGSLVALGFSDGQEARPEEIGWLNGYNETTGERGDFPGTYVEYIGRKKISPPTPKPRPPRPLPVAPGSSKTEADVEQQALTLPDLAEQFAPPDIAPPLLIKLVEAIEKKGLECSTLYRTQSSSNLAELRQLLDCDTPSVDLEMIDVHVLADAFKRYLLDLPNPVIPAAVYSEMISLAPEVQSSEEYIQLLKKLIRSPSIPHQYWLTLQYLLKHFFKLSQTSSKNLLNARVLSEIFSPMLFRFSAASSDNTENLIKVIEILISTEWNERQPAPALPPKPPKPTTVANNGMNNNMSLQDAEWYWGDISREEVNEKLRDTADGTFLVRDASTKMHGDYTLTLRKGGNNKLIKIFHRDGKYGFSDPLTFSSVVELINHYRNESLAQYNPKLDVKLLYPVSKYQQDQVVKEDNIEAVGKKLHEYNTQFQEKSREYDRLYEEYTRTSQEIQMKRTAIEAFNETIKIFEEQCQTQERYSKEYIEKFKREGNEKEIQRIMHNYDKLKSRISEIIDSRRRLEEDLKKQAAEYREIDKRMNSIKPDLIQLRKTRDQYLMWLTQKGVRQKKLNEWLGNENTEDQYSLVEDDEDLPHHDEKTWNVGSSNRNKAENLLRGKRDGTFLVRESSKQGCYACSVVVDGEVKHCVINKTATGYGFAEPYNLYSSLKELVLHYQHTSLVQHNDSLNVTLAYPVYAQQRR
T3 sequence (O00329 whole entry): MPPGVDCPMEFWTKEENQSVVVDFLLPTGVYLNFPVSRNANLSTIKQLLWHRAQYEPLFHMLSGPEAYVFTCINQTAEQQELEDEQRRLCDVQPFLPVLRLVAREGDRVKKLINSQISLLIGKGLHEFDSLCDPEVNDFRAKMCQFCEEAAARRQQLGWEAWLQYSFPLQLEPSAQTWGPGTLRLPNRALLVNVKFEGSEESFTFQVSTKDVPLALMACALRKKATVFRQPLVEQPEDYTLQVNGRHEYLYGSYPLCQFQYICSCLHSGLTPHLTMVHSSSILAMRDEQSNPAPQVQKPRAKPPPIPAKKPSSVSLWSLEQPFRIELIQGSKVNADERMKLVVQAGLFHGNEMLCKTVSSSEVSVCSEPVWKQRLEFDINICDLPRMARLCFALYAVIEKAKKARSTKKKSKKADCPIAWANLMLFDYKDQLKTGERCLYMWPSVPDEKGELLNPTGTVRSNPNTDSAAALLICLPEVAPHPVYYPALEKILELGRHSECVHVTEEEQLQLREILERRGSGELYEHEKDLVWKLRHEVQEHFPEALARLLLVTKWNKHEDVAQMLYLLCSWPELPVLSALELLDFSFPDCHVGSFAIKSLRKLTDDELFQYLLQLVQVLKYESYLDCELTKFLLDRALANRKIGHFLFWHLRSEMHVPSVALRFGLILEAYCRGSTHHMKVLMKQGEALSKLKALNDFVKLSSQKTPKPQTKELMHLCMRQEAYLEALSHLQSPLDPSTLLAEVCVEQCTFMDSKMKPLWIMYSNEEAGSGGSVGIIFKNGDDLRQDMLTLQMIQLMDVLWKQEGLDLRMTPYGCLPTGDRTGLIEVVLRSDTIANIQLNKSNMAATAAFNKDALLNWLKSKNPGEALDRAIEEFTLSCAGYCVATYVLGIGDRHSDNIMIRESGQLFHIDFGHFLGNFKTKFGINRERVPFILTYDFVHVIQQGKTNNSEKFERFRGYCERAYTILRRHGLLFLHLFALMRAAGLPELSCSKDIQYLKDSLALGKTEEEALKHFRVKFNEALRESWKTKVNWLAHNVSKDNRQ
T3 sequence (P27986 whole entry partner): as the sequence (P27986 whole entry partner) above

IC50 [1]	IC50 (PI3Kα(H1047R))	IC50 (PI3Kγ)	IC50 (PI3Kδ)	Structure (SMILES)
43 nM	> 25 nM	10 to 25 nM	< 15 nM and 10 to 35 nM	CC(C)(C#N)c1ccc(-c2n[nH]c3cnc4ccc(-c5cnc6ccccc6c5)cc4c23)cc1 [Compound 1078, 2-methyl-2-(4-(8-(quinolin-3-yl)-3H-pyrazolo[3,4-c]quinolin-1-yl)phenyl)propanenitrile]
189 nM	5 to 25 nM	10 to 25 nM	10 to 35 nM	CC(C)(C#N)c1ccc(-c2n[nH]c3cnc4ccc(-c5cccnc5)cc4c23)cc1 [Compound 1107, 2-methyl-2-(4-(8-(pyridin-3-yl)-3H-pyrazolo[3,4-c]quinolin-1-yl)phenyl)propanenitrile]
210 nM	> 25 nM	10 to 25 nM	10 to 35 nM	CC(C)(C#N)c1ccc(-c2n[nH]c3cnc4ccc(-c5ccc6ncccc6c5)cc4c23)cc1 [Compound 1110, 2-methyl-2-(4-(8-(quinolin-6-yl)-3H-pyrazolo[3,4-c]quinolin-1-yl)phenyl)propanenitrile]
